{
  "source": "patent US20240358015A1",
  "about": "“HERBICIDAL COMPOSITIONS” (Agrematch Ltd., priority 2021, published 2024)",
  "key": {"[1]": {"test_system": "Amaranthus palmeri", "assay": "Growth-chamber post-emergence assay, low application rates (Example 5)", "type": "in vivo", "experimental": "(§1) Herbicidal activity of Compound 1 was determined by post-emergence application on 8-day old plants (weeds) of the Amaranthus palmeri and Setaria viridis species that were grown at 16 hours/8 hours day/night cycles at 30° C./25° C., respectively. Leaf stage was typically 4-6 for A. palmeri and 3-4 for S. viridis.\n(§2) In each treatment, between 1 to 3 pots (8×12 cm), containing about 6 Amaranthus palmeri or Setaria viridis plants, were sprayed using a VL-SET Paasche Airbrush with a 1 ml-solution containing 0.1-0.375 mg/ml of the tested compound, which is equivalent to about 100-375 g/ha.\n(§3) Damage assessment: Herbicidal activity was assessed and scored 3-4 days after application by visual inspection of the plants in comparison to plants treated with the formulation alone (with no active ingredient) as control. Activity score is in the range of 0 to 100, where 0 represents no herbicidal activity like control plants and 100 represents the maximal herbicidal activity (i.e., total death of the plant)."}, "[2]": {"test_system": "Setaria viridis", "assay": "Growth-chamber post-emergence assay, low application rates (Example 5)", "type": "in vivo", "experimental": "as §1, §2, §3"}, "[3]": {"test_system": "S. alba", "assay": "Growth-chamber post-emergence assay on various weed species (Example 7)", "type": "in vivo", "details": "500 g/ha; 0.8% MIPA, 0.25% Genapol, 1% AGNIQUE, 0.05% Ca-LAS, 0.02% BSU, 0.05% Break-Thru", "experimental": "(§4) Herbicidal activity of Compound 1 was determined by post-emergence application on various weed species. 8-14 day old plants (weeds) were grown at 16 hours/8 hours day/night cycles at 30° C./25° C., respectively. Leaf stage was typically 2-6.\n(§5) In each treatment, 3 pots (either 7×7 or 8×12 cm), containing about 3-6 plants each, were sprayed using a VL-SET Paasche Airbrush with a 1-1.5 ml-solution containing 0.5-1.5 mg/ml of the tested compound, which is equivalent to about 500-1500 g/ha.\nas §3"}, "[4]": {"test_system": "A. palmeri", "assay": "Greenhouse post-emergence assay (Example 3)", "type": "in vivo, Amaranthus palmeri", "details": "4% TWEEN 20, 0.05 M Tris buffer pH 8, 0.05% Break-Thru", "experimental": "Plant seeds were sowed in 9 cm×9 cm×10 cm flowerpots. Timing of sowing (days before treatment application) for each plant is detailed in Table 7 below. 5 flowerpots of each species were used for each treatment. Seeds were sowed in wet clay soil and then covered with about 1 cm layer of dry clay soil.\nIrrigation: Irrigation was carried out using VIBRONET-UD (NETAFIM) sprinklers hanging upside down one meter above the flowerpots. Water flow capacity-50 liters per hour. Irrigation was carried out three times a day for 10 minutes.\nTreatments: Table 8 presents generally the protocols of the various treatments used in these assays.\n(§6) 57.6 ml of 0.05 M Tris buffer pH=8 were added to 150 mg of Compound 1 and the mixture was stirred using a magnetic stirrer. 2.4 ml of TWEEN®20 were added and the mixture was stirred using a magnetic stirrer to obtain a 4% TWEEN®20-containing solution. 30 μl of Break-Thru were added to obtain a 0.05% Break-Thru-containing solution.\nas §6, with “225” for “150”\nPlants were sprayed using a DeVreis Generation 4 Research Track Sprayer with a TEE JET nozzle 80015EVS. Spraying volume was 200 L/ha using the following sprayer parameters: • Spray speed-2 KMH • Spray length-1.50 m • Spray pressure-42 PSI\nEach plant was sprayed twice, yielding a total spraying volume of 400 L/ha. Nozzle was located 55 cm above pots ground level.\nA. palmeri, S. viridis and S. nigrum plants were elevated with 8 cm tray, Z. mays plants were elevated with 3 cm tray in order to achieve a similar spraying height for all plant's foliage.\nPlants were scored by visual inspection of symptoms, on a scale of 0-100, where 0 represents no herbicidal activity like control plants and 100 represents the maximal herbicidal activity (i.e., total death of the plant). Each pot was scored separately. DAT=days after treatment"}, "[5]": {"test_system": "A. theophrasti", "assay": "Growth-chamber post-emergence assay on various weed species (Example 7)", "type": "in vivo, Abutilon theophrasti", "details": "1500 g/ha; 0.8% MIPA, 0.25% Genapol, 2% HASTEN, 0.05% Break-Thru", "experimental": "as §4, §5, §3"}, "[6]": {"test_system": "Lolium multiflorum", "assay": "Growth-chamber post-emergence assay on additional weeds (Example 2)", "type": "in vivo", "details": "1000 g/ha; 13-day old plants; 3 days after application; scale 0-100", "experimental": "(§7) Herbicidal activity of Compound 1 was determined by post-emergence application on 13-day old Echinochloa colonum, Lolium multiflorum and Solanum nigrum.\n(§8) In each treatment, 3 pots, each containing about 5 plants, were sprayed using the same conditions as described above which are equivalent to 1000 g/ha. Herbicidal activity was assessed and scored 3 days after application by visual inspection of the weeds. Activity score is in the range of 0 to 100, where 0 represents no herbicidal activity like control plants and 100 represents the maximal herbicidal activity (i.e., total death of the plant). The obtained data is presented in Table 6 below per the activity score as described herein."}, "[7]": {"test_system": "Echinochloa colonum", "assay": "Growth-chamber post-emergence assay on additional weeds (Example 2)", "type": "in vivo", "details": "1000 g/ha; 13-day old plants; 3 days after application; scale 0-100", "experimental": "as §7, §8"}, "[8]": {"test_system": "Solanum nigrum", "assay": "Growth-chamber post-emergence assay on additional weeds (Example 2)", "type": "in vivo", "details": "1000 g/ha; 13-day old plants; 3 days after application; scale 0-100", "experimental": "as §7, §8"}, "[9]": {"details": "125 g/ha, 0.8% MIPA, 0.25% Genapol, 2% DASH EC"}, "[10]": {"details": "125 g/ha, 0.8% MIPA, 2% DASH EC"}, "[11]": {"details": "150 g/ha, 0.8% MIPA, 0.25% Genapol, 1% AGNIQUE, 0.05% Ca-LAS, 0.02% BSU"}, "[12]": {"details": "150 g/ha, 0.8% MIPA, 0.25% Genapol, 2% HASTEN"}, "[13]": {"details": "200 g/ha, 0.21% MIPA, 0.25% Genapol, 1% AGNIQUE, 0.05% Ca-LAS, 0.02% BSU"}, "[14]": {"details": "200 g/ha, 0.8% MIPA, 0.25% Genapol, 1% AGNIQUE, 0.05% Ca-LAS, 0.02% BSU"}, "[15]": {"details": "375 g/ha, 0.8% MIPA, 0.25% Genapol, 1% AGNIQUE, 0.05% Ca-LAS, 0.02% BSU"}, "[16]": {"details": "375 g/ha, 0.8% MIPA, 2% TWEEN20, 1% AGNIQUE, 0.05% Ca-LAS, 0.02% BSU, 0.05% Break-Thru, 3-4 days after application, scale 0-100"}},
  "data": [
    {"smiles": "O=C(O)c1cc(O)c2c(c1)C(=O)c1cccc(O)c1C2=O", "note": "[Compound 1, Rhein]", "values": [
      {"measurement": "Herbicidal activity score", "setting": "[1]; 100 g/ha, 0.8% MIPA, 0.25% Genapol, 2% DASH EC", "value": 90},
      {"measurement": "Herbicidal activity score", "setting": "[1]; [9]", "value": 93},
      {"measurement": "Herbicidal activity score", "setting": "[1]; [10]", "value": 65},
      {"measurement": "Herbicidal activity score", "setting": "[1]; [11]", "value": 85},
      {"measurement": "Herbicidal activity score", "setting": "[1]; [12]", "value": 85},
      {"measurement": "Herbicidal activity score", "setting": "[1]; [13]", "value": 93},
      {"measurement": "Herbicidal activity score", "setting": "[1]; [14]", "value": 98},
      {"measurement": "Herbicidal activity score", "setting": "[1]; 250 g/ha, 0.02% MIPA, 2% TWEEN20, 2% AGNIQUE, 0.1% Ca-LAS, 0.04% BSU, 0.05% Break-Thru", "value": 90},
      {"measurement": "Herbicidal activity score", "setting": "[1]; [15]", "value": 97},
      {"measurement": "Herbicidal activity score", "setting": "[1]; [16]", "value": 100},
      {"measurement": "Herbicidal activity score", "setting": "[2]; [9]", "value": 23},
      {"measurement": "Herbicidal activity score", "setting": "[2]; [10]", "value": 43},
      {"measurement": "Herbicidal activity score", "setting": "[2]; [11]", "value": 70},
      {"measurement": "Herbicidal activity score", "setting": "[2]; [12]", "value": 65},
      {"measurement": "Herbicidal activity score", "setting": "[2]; [13]", "value": 65},
      {"measurement": "Herbicidal activity score", "setting": "[2]; [14]", "value": 88},
      {"measurement": "Herbicidal activity score", "setting": "[2]; [15]", "value": 78},
      {"measurement": "Herbicidal activity score", "setting": "[2]; [16]", "value": 75},
      {"measurement": "Herbicidal activity score", "setting": "[3]", "value": 80},
      {"measurement": "Score by visual inspection of symptoms (average ± standard deviation, 5 pots)", "setting": "[4]; 1000 g/ha (2.5 mg/ml, 400 L/ha), 1 DAT, scale 0-100", "value": "22 ± 13"},
      {"measurement": "Score by visual inspection of symptoms (average ± standard deviation, 5 pots)", "setting": "[4]; 1000 g/ha (2.5 mg/ml, 400 L/ha), 3 DAT", "value": "54 ± 11.4"},
      {"measurement": "Score by visual inspection of symptoms (average ± standard deviation, 5 pots)", "setting": "[4]; 1000 g/ha (2.5 mg/ml, 400 L/ha), 6 DAT", "value": "36 ± 8.9"},
      {"measurement": "Score by visual inspection of symptoms (average ± standard deviation, 5 pots)", "setting": "[4]; 1000 g/ha (2.5 mg/ml, 400 L/ha), 8 DAT", "value": "34 ± 11.4"},
      {"measurement": "Score by visual inspection of symptoms (average ± standard deviation, 5 pots)", "setting": "[4]; 1000 g/ha (2.5 mg/ml, 400 L/ha), 15 DAT", "value": "20 ± 15.8"},
      {"measurement": "Score by visual inspection of symptoms (average ± standard deviation, 5 pots)", "setting": "[4]; 1500 g/ha (3.75 mg/ml, 400 L/ha), 1 DAT", "value": "38 ± 29.5"},
      {"measurement": "Score by visual inspection of symptoms (average ± standard deviation, 5 pots)", "setting": "[4]; 1500 g/ha (3.75 mg/ml, 400 L/ha), 3 DAT", "value": "90 ± 9.4"},
      {"measurement": "Score by visual inspection of symptoms (average ± standard deviation, 5 pots)", "setting": "[4]; 1500 g/ha (3.75 mg/ml, 400 L/ha), 6 DAT", "value": "87 ± 9.7"},
      {"measurement": "Score by visual inspection of symptoms (average ± standard deviation, 5 pots)", "setting": "[4]; 1500 g/ha (3.75 mg/ml, 400 L/ha), 8 DAT", "value": "83 ± 14"},
      {"measurement": "Score by visual inspection of symptoms (average ± standard deviation, 5 pots)", "setting": "[4]; 1500 g/ha (3.75 mg/ml, 400 L/ha), 15 DAT", "value": "66 ± 29.7"},
      {"measurement": "Herbicidal activity score", "setting": "[5]", "value": 40},
      {"measurement": "Activity Score", "setting": "[6]", "value": 50},
      {"measurement": "Activity Score", "setting": "[7]", "value": 70},
      {"measurement": "Activity Score", "setting": "[8]", "value": 60}
    ]}
  ]
}
